{"source": "patent US4751215A", "about": "“Process for increasing the sexual activity of birds and useful domestic mammals and for preparing spermatozoa suitable to their propagation” (INNOFINANCE Altalanos Innovacios Penzintezet, priority 1985, dated 1988)", "type_in_all_cases": "in vivo", "key": {"[1]": {"test_system": "bull", "assay": "Enhancement of the sexual activity of a bull", "conditions": "300 μg each, 3 times", "method": "A 2-year old bull of 1010 kg weight, of breeding condition and correspondingly having a good muscular system, good leg construction and a definitely male sexual character was set to breeding in 1985. On October 16 and 23 as well as on Nov. 1, 1985 test coverings were carried out on a rutting female cattle and on a phantom bull. […] Diagnosis stated by the veterinarian specialist: importentia coeundi. The bull was treated on November 29 as well as on Dec. 2 and 4, 1986 altogether 3 times with 300 μg each of D-[…] -GnRH analogue. On Dec. […] 7, 1986. On Jan. 21, 1986 the bull sprung onto a cow being after rutting. The sexual potency of the animal was unobjectionable even after 5 weeks following the treatment."}, "[2]": {"test_system": "testosterone level", "assay": "Testosterone level of treated male turkeys (Table 3)", "conditions": "Treated (n = 15)", "method": "(§1) 0.5 μg/kg of D-Phe^6 -GnRH analogue was intramuscularly administered to sexually mature male turkeys every 2 days, altogether 3 times. On the 20th day following treatment, the sperm production reached an increase of 44% and remained at a higher level, as compared to the control, for about 1 month (FIG. 4).\n(§2) One month and half after the first treatment, the same animals were similarly treated with 0.5 μg/kg of (Asp-α-diethylamide)^6,desGly^10 -GnRH ethylamide analogue every 2 days, altogether 3 times.\nThe rise of the LH level of the blood was followed by an increase in the testosterone level (Table 3)."}, "[3]": {"test_system": "male turkeys", "assay": "Effect of gonadoliberin analogues on the sperm production of male turkeys (Table 5)", "from_the_text": "In a further experiment, the sperm production of male turkeys was raised by administering the following four compounds: […]"}, "[4]": {"test_system": "male turkeys", "assay": "Permanent increase in sperm production of male turkeys bred on a large scale (Example 1, FIG. 4)", "conditions": "0.5 μg/kg i.m. every 2 days, 3 times", "method": "as §1, §2"}, "[5]": {"test_system": "blood plasma testosterone level", "assay": "Effect of various doses on blood plasma testosterone level of domestic cock (Table 1)", "from_the_text": "In Table 1, the relation of the doses of the compounds of general formula (I) to the blood plasma testosterone level of the treated animals is illustrated in case of domestic cocks."}, "[6]": {"test_system": "male turkey", "assay": "Effect of interval between three intramuscular injections on sperm production of male turkey (Table 2)", "conditions": "three i.m. injections, 1 μg/kg", "from_the_text": "In Table 2, the influence on the sperm production of the interval kept between the consecutive treatments is shown on male turkeys."}}, "data": [{"smiles": "CC(C)C[C@H](NC(=O)[C@@H](Cc1ccccc1)NC(=O)[C@H](Cc1ccc(O)cc1)NC(=O)[C@H](CO)NC(=O)[C@H](Cc1c[nH]c2ccccc12)NC(=O)[C@H](Cc1c[nH]cn1)NC(=O)[C@@H]1CCC(=O)N1)C(=O)N[C@@H](CCCNC(=N)N)C(=O)N1CCC[C@H]1C(=O)NCC(N)=O", "note": "[Compound \"A\", D-Phe^6 -GnRH]", "values": [{"measurement": "sexual potency of the animal", "setting": "[1]; 5 weeks following the treatment", "result": "unobjectionable"}, {"measurement": "covering behaviour after treatment", "setting": "[1]; bull with impotentia coeundi, Dec. 6, 1985", "result": "covered two times a rutting cow"}, {"measurement": "Testosterone", "setting": "[2]; sampling May 2", "result": "2.43 ± 1.22", "unit": "ng/mL"}, {"measurement": "Testosterone", "setting": "[2]; sampling May 23", "result": "4.06 ± 1.62", "unit": "ng/mL"}, {"measurement": "Sperm production", "setting": "[3]; after 30 days", "result": 0.34, "unit": "ml/animal"}, {"measurement": "Sperm production", "setting": "[3]; after 60 days", "result": 0.39, "unit": "ml/animal"}, {"measurement": "Sperm production", "setting": "[3]; at the beginning of the experiment", "result": 0.27, "unit": "ml/animal"}, {"measurement": "time sperm production remained at a higher level as compared to the control", "setting": "[4]", "result": "about 1 month"}, {"measurement": "increase of sperm production", "setting": "[4]; on the 20th day following treatment", "result": 44, "unit": "%"}, {"measurement": "Testosterone level of the blood plasma", "setting": "[5]; dose 0.01 μg/kg, after 0 minutes", "result": "1.7 (0.7) ng/ml"}, {"measurement": "Testosterone level of the blood plasma", "setting": "[5]; dose 0.01 μg/kg, after 30 minutes", "result": "1.6 (1.3) ng/ml"}, {"measurement": "Testosterone level of the blood plasma", "setting": "[5]; dose 0.01 μg/kg, after 60 minutes", "result": "1.5 (1.0) ng/ml"}, {"measurement": "Testosterone level of the blood plasma", "setting": "[5]; dose 0.01 μg/kg, after 120 minutes", "result": "1.4 (0.6) ng/ml"}, {"measurement": "Testosterone level of the blood plasma", "setting": "[5]; dose 0.05 μg/kg, after 0 minutes", "result": "1.4 (0.7) ng/ml"}, {"measurement": "Testosterone level of the blood plasma", "setting": "[5]; dose 0.05 μg/kg, after 30 minutes", "result": "1.7 (1.2) ng/ml"}, {"measurement": "Testosterone level of the blood plasma", "setting": "[5]; dose 0.05 μg/kg, after 60 minutes", "result": "1.5 (1.2) ng/ml"}, {"measurement": "Testosterone level of the blood plasma", "setting": "[5]; dose 0.05 μg/kg, after 120 minutes", "result": "1.9 (0.8) ng/ml"}, {"measurement": "Testosterone level of the blood plasma", "setting": "[5]; dose 0.1 μg/kg, after 0 minutes", "result": "1.0 (0.2) ng/ml"}, {"measurement": "Testosterone level of the blood plasma", "setting": "[5]; dose 0.1 μg/kg, after 30 minutes", "result": "3.4 (1.9) ng/ml"}, {"measurement": "Testosterone level of the blood plasma", "setting": "[5]; dose 0.1 μg/kg, after 60 minutes", "result": "2.7 (1.1) ng/ml"}, {"measurement": "Testosterone level of the blood plasma", "setting": "[5]; dose 0.1 μg/kg, after 120 minutes", "result": "2.0 (0.8) ng/ml"}, {"measurement": "Testosterone level of the blood plasma", "setting": "[5]; dose 0.3 μg/kg, after 0 minutes", "result": "2.1 (0.7) ng/ml"}, {"measurement": "Testosterone level of the blood plasma", "setting": "[5]; dose 0.3 μg/kg, after 30 minutes", "result": "3.9 (0.6) ng/ml"}, {"measurement": "Testosterone level of the blood plasma", "setting": "[5]; dose 0.3 μg/kg, after 60 minutes", "result": "4.2 (1.2) ng/ml"}, {"measurement": "Testosterone level of the blood plasma", "setting": "[5]; dose 0.3 μg/kg, after 120 minutes", "result": "2.6 (0.5) ng/ml"}, {"measurement": "Testosterone level of the blood plasma", "setting": "[5]; dose 0.5 μg/kg, after 0 minutes", "result": "2.5 (1.0) ng/ml"}, {"measurement": "Testosterone level of the blood plasma", "setting": "[5]; dose 0.5 μg/kg, after 30 minutes", "result": "6.5 (0.5) ng/ml"}, {"measurement": "Testosterone level of the blood plasma", "setting": "[5]; dose 0.5 μg/kg, after 60 minutes", "result": "5.3 (1.2) ng/ml"}, {"measurement": "Testosterone level of the blood plasma", "setting": "[5]; dose 0.5 μg/kg, after 120 minutes", "result": "3.9 (1.5) ng/ml"}, {"measurement": "Testosterone level of the blood plasma", "setting": "[5]; dose 1.0 μg/kg, after 0 minutes", "result": "1.5 (0.8) ng/ml"}, {"measurement": "Testosterone level of the blood plasma", "setting": "[5]; dose 1.0 μg/kg, after 30 minutes", "result": "7.2 (3.5) ng/ml"}, {"measurement": "Testosterone level of the blood plasma", "setting": "[5]; dose 1.0 μg/kg, after 60 minutes", "result": "7.1 (3.6) ng/ml"}, {"measurement": "Testosterone level of the blood plasma", "setting": "[5]; dose 1.0 μg/kg, after 120 minutes", "result": "3.7 (1.2) ng/ml"}, {"measurement": "Testosterone level of the blood plasma", "setting": "[5]; dose 3.0 μg/kg, after 0 minutes", "result": "1.9 (0.3) ng/ml"}, {"measurement": "Testosterone level of the blood plasma", "setting": "[5]; dose 3.0 μg/kg, after 30 minutes", "result": "6.2 (2.4) ng/ml"}, {"measurement": "Testosterone level of the blood plasma", "setting": "[5]; dose 3.0 μg/kg, after 60 minutes", "result": "5.2 (1.7) ng/ml"}, {"measurement": "Testosterone level of the blood plasma", "setting": "[5]; dose 3.0 μg/kg, after 120 minutes", "result": "3.0 (1.1) ng/ml"}, {"measurement": "Testosterone level of the blood plasma", "setting": "[5]; dose 5.0 μg/kg, after 0 minutes", "result": "2.1 (1.2) ng/ml"}, {"measurement": "Testosterone level of the blood plasma", "setting": "[5]; dose 5.0 μg/kg, after 30 minutes", "result": "3.6 (2.4) ng/ml"}, {"measurement": "Testosterone level of the blood plasma", "setting": "[5]; dose 5.0 μg/kg, after 60 minutes", "result": "2.7 (0.6) ng/ml"}, {"measurement": "Testosterone level of the blood plasma", "setting": "[5]; dose 5.0 μg/kg, after 120 minutes", "result": "1.7 (0.9) ng/ml"}, {"measurement": "Sperm volume", "setting": "[6]; interval between treatments 24 hour, on day 0", "result": "0.18 (0.05) ml"}, {"measurement": "Sperm volume", "setting": "[6]; interval between treatments 24 hour, on the 20th day", "result": "0.21 (0.10) ml"}, {"measurement": "Sperm volume", "setting": "[6]; interval between treatments 48 hour, on day 0", "result": "0.19 (0.07) ml"}, {"measurement": "Sperm volume", "setting": "[6]; interval between treatments 48 hour, on the 20th day", "result": "0.35 (0.12) ml"}, {"measurement": "Sperm volume", "setting": "[6]; interval between treatments 72 hour, on day 0", "result": "0.16 (0.08) ml"}, {"measurement": "Sperm volume", "setting": "[6]; interval between treatments 72 hour, on the 20th day", "result": "0.25 (0.11) ml"}, {"measurement": "Sperm volume", "setting": "[6]; interval between treatments 144 hour, on day 0", "result": "0.21 (0.07) ml"}, {"measurement": "Sperm volume", "setting": "[6]; interval between treatments 144 hour, on the 20th day", "result": "0.24 (0.09) ml"}]}]}
